# Literature values as cited in patent EP2610673B1, “Method for manufacturing lithographic printing plates” (FUJIFILM Corporation, priority 2011, dated 2013).
row,Compound,solubility in 20°C water [g/100 mL]
1,OCCOc1ccccc1 [ethylene glycol monophenyl ether],2.7
2,CC(C)CCO [3-methyl-1-butanol],2.7
3,OCc1ccccc1 [benzyl alcohol],4.0
4,CCCOC(C)=O [propyl acetate],1.6
5,CC(C)CC(C)O (stereo not shown) [4-methyl-2-pentanol],2.0
6,"CCCC(C)O (stereo not shown) [Example 2-pentanol, 2-pentanol]",4.5
7,CCC(=O)CC [diethyl ketone],1.7
8,CCC(C)CO (stereo not shown) [2-methyl-1-butanol],3.0
9,CC(C)C(C)O (stereo not shown) [3-methyl-2-butanol],5.6
10,"CCCC(C)=O [Example 2-pentanone, 2-pentanone]",4.0
11,"CCC(O)CC [Example 3-pentanol, 3-pentanol]",5.2
12,CCCCOCCOCCOC(C)=O [diethylene glycol monobutyl ether acetate],6.5
13,"CCCCCO [Example 1-pentanol, 1-pentanol]",2.7
14,CCCCOCC(C)O (stereo not shown) [propylene glycol mono-n-butyl ether],4.4
15,CC(C)(C)CO [neopentyl alcohol],3.5
16,CC(=O)OC(C)C [isopropyl acetate],4.3
